In general, GI50 refers to the concentration that inhibits growth by half. One may read the MTD as the largest dose that counted as tolerated. A high value points to better tolerability.

Results on 1 compound are retold here after patent US20230312577A1, “DUAL KINASE-BROMODOMAIN INHIBITORS” (MONASH UNIVERSITY, priority 2020, published 2023).

Series [1] has as its target BRD4 (Homo sapiens, UniProt O60885). As to the kind of experiment: Cellular thermal shift assay (CETSA) in Ramos cells. Format: cell-based. Set-up: endogenous in cells. Conditions: 20 μM, 40 min, vs DMSO. The procedure: Ramos cells (human Burkitt lymphoma cell line) at 20×10^6 were washed in PBS followed by resuspension in 5 mL serum-free RPMI. They were treated either with Cpd 010 or DMSO at 20 μM for 40 min at 37° C. with 5% CO2. Cells were then collected, resuspended in PBS and separated into PCR tubes. They were heated at designated temperature for strictly 3 min followed by another 3 min at 25° C. on ABI Applied Biosystems 9902 Veriti PCR Thermal Cycler. Immediately, they were placed in liquid nitrogen for snap freezing. The samples were freeze-thawed until the final samples were place on ice. They were centrifuged and supernatants were collected. Loading dye was mixed and these were processed as per our Western Blot protocol (see above). The following primary antibodies were used; rabbit BRD4 (Cell Signaling, #13440), rabbit BRD2 (Cell Signaling, #5848), and mouse anti-β-actin (Sigma-Aldrich, clone AC-74).

The test system of series [2] is OPM2 cells. The series can be described thus: Cell proliferation assay (ViaLight, cellular ATP). It is filed as cell-based. Conditions: Homo sapiens, OPM-2, 120 h, 5 days, 5 μM to 1 nM. The gist of the method:
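1×10^3 cells per well exposed to compounds at final 5 μM to 1 nM for 5 days. Viability read as cellular ATP by ViaLight luminescence, technical triplicates. GI50 computed from the dose–response.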

In series [3] the test system is PD-L1 and pAKT (PI3K substrate). As to the kind of experiment: In vivo target engagement from a single dose (PD-L1, pAKT), Eμ-Myc lymphoma. Also noted: species or system mouse. Conditions: single dose 35-45 mg/kg. The procedure:
B6.SJL-PtprcPepc/BoyJ (B6.CD45.1) mice were inoculated via tail vein injection with 5×10^5 Eμ-Myc lymphoma cells and left untreated for 12-14 days. A single injection of Cpd 010 at 35-45 mg/kg, or vehicle control (30% HPBCD) was administered. Half of the mice (n=6) were harvested 6 h post injection while the other half (n=6) were harvested 16 h later. Assessment of tumour burden was carried out on single cell suspension of harvested lymph nodes, spleen and blood by flow cytometry using antibodies as above. PD-L1 MFI was assessed by flow cytometry in harvested LNs using anti-mouse PD-L1-PE (ThermoFisher Scientific, clone MIH5) or isotype control antibodies (Mouse IgG2b PE, #559529). Harvested LNs were also washed in PBS and lysates were collected using Laemmli Buffer (AlfaAeser #J61337). They were processed as per our Western Blot protocol (see above) before they were probed for primary pAKT antibodies. Spleen size and weights were also measured between the treatment groups.
In terms of target engagement, PD-L1 expression in the tumour cells were measured in the harvested LN and spleen. As expression of the Myc transgene in Eμ-Myc is not BET-de pendent, MYC cannot be measured as a read-out of BET inhibition, therefore PD-L1 was used as an indicator for BET inhibition. […] Similarly, pAKT (PI3K substrate) was suppressed by Cpd 010 in the lysates made from harvested LN.

Series [4] concerns MYC gene. As to the kind of experiment: RT-qPCR in OPM2 cells. It is filed as cell-based, human. Conditions: 2 h. The protocol:
OPM2 cells (1×10^6) were treated with Cpd 010 or DMSO vehicle at indicated concentrations for 2 h. RNA was extracted from cell pellets using the PureLink™ RNA Mini Kit (ThermoFisher Scientific, #121839025) as per the manufacturer's instructions. cDNA was syn thesised with the SuperScript™ III cDNA synthesis kit (ThermoFisher Scientific, #18080093) according to the manufacturer's instructions. Quantitative PCR analysis of samples was per formed on the QuantStudio7 Flex RT-PCR system (ThermoFisher) with SYBR™ Master Mix (ThermoFisher Scientific, #4472903). L32 were used as the human control gene. Primer se quences were: Homo sapiens MYC F: […] R: […], Homo sapiens L32 F: […] R: TTGTGAGCGATCTCGGCAC. Each RT-qPCR am plification was performed in triplicate (technical triplicates) and repeated 2 times (biological replicates).
Background: Real-time PCR tracks product formation cycle by cycle.

Series [5] is described as follows: In vivo assessment of maximum tolerated dose (MTD). From the text: The Peter MacCallum Cancer Centre Animal Ethics Committee approved all in vivo procedures in this study. B6.SJL-PtprcPepc/BoyJ (B6.CD45.1) mice were purchased from the Walter and Eliza Hall Institute (Melbourne, VIC). For enhanced solubility, Cpd 010 was reconstituted in double dose with 60% Hydroxypropyl-B-cyclodextrin (HPBCD; Cyclodextrin Technologies Development Inc.) and subsequently diluted with ultrafiltered water in 1:1 ratio prior to injection. Vehicle control was 60% HPBCD subsequently diluted 1:1 ratio with ultrafiltered water prior to injection for the final concentration of 30% HPBCD. MTD was carried out in 6-8 week old, non-tumour bearing female mice starting from 25 mg/kg of Cpd 010, 5 day intraperitoneal injection. Six mice received Cpd 010 and two mice received vehicle (30% HPBCD). Full Blood Examination (FBE), serum, spleen weight and morphological examination for toxicity were assessed on day 8 and day 15. In the absence of toxicity further dose escalation was carried out.

The test system of series [6] is MYC target genes. The series can be described thus: RNA-Seq and Gene Set Enrichment Analysis (GSEA) in OPM2 cells. It is filed as cell-based, human. The note with it: 250 nM, 2 h. The procedure:
OPM2 cells (4×10^6) were treated with 250 nM of Cpd 010 or DMSO vehicle for 2 h. Cells pellets were collected, and RNA was extracted using the Nucleospin RNA extraction kit (Macherey-Nagel) as per the manufacturer's instructions. The QuantSeq 30 mRNA-seq Library Prep Kit for Illumina (Lexogen) was used to generate libraries as per the manufacturer's instructions, which were sequenced on the NextSeq (Illumina; 75 bp SE). GSEA2-2.2.2 was used for identification of enriched signatures obtained from the MSigDB Hallmarks datasets (Liber-zon et al., 2015). Samples were prepared in technical triplicates.

The subject of series [7] is OPM2 cells. As to the kind of experiment: Synergy between PI3K and BET inhibitors, apoptosis assay (TMRE) and synergy score. It is filed as cell-based, human. The protocol: An apoptosis assay using TMRE stain by flow cytometry was performed in OPM2 cells with indicated compounds. […] Using Synergyfinder web application (https://synergyfinder.fimm.fi), synergy score was calculated. Zero Interaction Potency (ZIP) reference models was utilised.

The structures appear in SMILES notation. Bounds are passed on as bounds.

For the compound `CC(=O)N1c2ccc(-c3ccc(CNC(=O)c4cn5cc(-c6cnc(N)nc6)nc(N6CCOCC6)c5n4)cc3)cc2CC[C@@H]1C` [Cpd 010, (S)-N-(4-(1-acetyl-2-methyl-1,2,3,4-tetrahydroquinolin-6-yl)benzyl)-6-(2-aminopyrimidin-5-yl)-8-morpholinoimidazo[1,2-a]pyrazine-2-carboxamide], in series [1], the “clearance of BRD4 protein with increasing temperature” value was “delayed clearance”. Besides, the 50% growth inhibitory concentration (GI50) in series [2] is not above 0.1 µM. Also, the “PD-L1 expression in tumour cells (indicator for BET inhibition)” value in series [3] (harvested LN) is given as “significantly reduced”. In addition, in series [3] (lysates from harvested LN), the “pAKT (PI3K substrate)” value was “suppressed”. For the same compound, in series [4], the “MYC mRNA level” value was “significant decrease in MYC mRNA level”. Moreover, the “spleen and body weight” value in series [5] (50 mg/kg) was “no changes in spleen and body weight”. For the same compound, in series [5] (50 mg/kg, day 8), the “FBE at day 8” value is “moderate thrombocytopenia”. Further, the “FBE on day 15” value in series [5] (50 mg/kg, day 15) is given as “recovered to the normal level”. The compound also returned an MTD at 5 day in series [5] (B6.SJL-Ptprc<a>Pepc<b>/BoyJ (B6.CD45.1), mouse, in vivo, ip, non-tumour bearing female mice, 5 day intraperitoneal injection) of 50 mg/kg. For the same compound, the gene set enrichment entry in series [6] is reported as “enrichment against MYC target genes with a trend toward MTORC1 signaling genes”. The induction of apoptosis entry in series [7] is “even more enhanced apoptosis compared to the combination of two drugs together”.
